SMILES strings stand for the structures. Activity calls are given as the source filed them. The calls are words filed in the database; no cut-off is given here.

Assay [1] concerns LAPC4. The assay can be described thus: Inhibition of colony formation in human LAPC4 cells at 10 uM incubated for 10 days by crystal violet staining based assay. The assay is classed as functional. The note with it: LAPC4, 240 h, time 10 day.
For assay [2], the target named is T1, Androgen receptor (Homo sapiens) (UniProt P10275).
T1 sequence (whole entry): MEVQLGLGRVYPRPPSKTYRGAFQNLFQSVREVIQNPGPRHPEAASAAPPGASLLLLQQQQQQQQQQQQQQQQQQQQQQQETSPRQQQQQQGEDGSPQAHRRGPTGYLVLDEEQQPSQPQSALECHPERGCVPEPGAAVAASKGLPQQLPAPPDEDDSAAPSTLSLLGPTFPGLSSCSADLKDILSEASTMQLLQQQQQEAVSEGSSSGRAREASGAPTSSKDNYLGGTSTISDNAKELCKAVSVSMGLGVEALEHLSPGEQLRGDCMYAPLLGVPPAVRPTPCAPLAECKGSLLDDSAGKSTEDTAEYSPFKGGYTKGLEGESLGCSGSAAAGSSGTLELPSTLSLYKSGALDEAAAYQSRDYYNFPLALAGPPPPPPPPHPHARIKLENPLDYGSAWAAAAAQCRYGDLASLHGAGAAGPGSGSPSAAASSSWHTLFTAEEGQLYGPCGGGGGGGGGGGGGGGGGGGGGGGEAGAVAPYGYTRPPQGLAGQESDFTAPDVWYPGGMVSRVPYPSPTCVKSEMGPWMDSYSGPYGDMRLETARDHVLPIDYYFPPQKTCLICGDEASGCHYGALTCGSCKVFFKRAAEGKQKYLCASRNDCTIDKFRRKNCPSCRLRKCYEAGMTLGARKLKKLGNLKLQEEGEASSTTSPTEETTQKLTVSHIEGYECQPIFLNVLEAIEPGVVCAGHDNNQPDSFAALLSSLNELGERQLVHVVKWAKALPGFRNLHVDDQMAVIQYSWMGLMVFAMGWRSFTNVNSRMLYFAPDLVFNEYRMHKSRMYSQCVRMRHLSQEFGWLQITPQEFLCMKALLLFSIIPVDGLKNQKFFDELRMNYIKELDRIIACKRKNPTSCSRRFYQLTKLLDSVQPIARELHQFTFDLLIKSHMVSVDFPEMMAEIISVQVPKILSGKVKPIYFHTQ
The assay can be described thus: Antagonist activity at AR in human LAPC4 cells assessed as reduction in PSA expression at 10 uM incubated for 24 hrs in presence of R1881 by Western blotting analysis. The note with it: filed as antagonist. The format is cell-based. A general note: Immunoblotting shows a protein as a band on a membrane.

A further assay has as its system DU-145. Nature of the assay: Cytotoxicity against human DU-145 cells assessed as cell viability at 20 uM incubated for 72 hrs by resazurin dye based microplate reader assay. The format is functional. To be noted: read-out: Activity. (Alamar Blue is a resazurin reagent that responds to reducing activity.)
Assay [3] has as its target T1, Androgen receptor (Homo sapiens). The assay can be described thus: Antagonist activity at AR in human LAPC4 cells assessed as reduction in Nkx3.1 expression at 10 uM incubated for 24 hrs in presence of R1881 by Western blotting analysis. The note with it: filed as antagonist. The assay is classed as cell-based.
Another assay relates to CWR22R. The assay can be described thus: Cytotoxicity against human 22Rv1 cells assessed as cell viability at 20 uM incubated for 72 hrs by resazurin dye based microplate reader assay. The assay is classed as functional. The note with it: read-out: Activity.
Assay [4] deals with LAPC4. Nature of the assay: Cytotoxicity against human LAPC4 cells assessed as cell viability at 20 uM incubated for 72 hrs by resazurin dye based microplate reader assay. The assay is classed as functional. The note with it: read-out: Activity.
The nature of assay [5]: Downregulation of AR protein expression in human LAPC4 cells assessed as AR levels at 10 uM incubated for 24 hrs by immunoblotting analysis. The format is functional.
Assay [6] concerns LAPC4. The assay can be described thus: Inhibition of colony formation in human LAPC4 cells at 5 uM incubated for 10 days by crystal violet staining based assay. The assay is classed as functional, cell-based. The note with it: time 10.0 day.
Assay [7] concerns LAPC4. The assay can be described thus: Downregulation of PSA protein expression in human LAPC4 cells at 10 uM incubated for 24 hrs by immunoblotting analysis. The assay is classed as functional, cell-based.
Assay [8] concerns LAPC4. The assay can be described thus: Downregulation of Nkx3.1 protein expression in human LAPC4 cells at 10 uM incubated for 24 hrs by immunoblotting analysis. The assay is classed as functional, cell-based.
Assay [9] addresses T1, Androgen receptor (Homo sapiens). Nature of the assay: Antagonist activity at AR in human LNCaP-abl cells assessed as reduction in PSA expression at 10 uM incubated for 24 hrs in presence of R1881 by Western blotting analysis. The format is cell-based. The note with it: filed as antagonist.
Assay [10] has the same target. Nature of the assay: Antagonist activity at AR in human LNCaP-abl cells assessed as reduction in phosphorylation at S81 at 10 uM incubated for 24 hrs in presence of R1881 by Western blotting analysis. The assay is classed as cell-based. The note with it: filed as antagonist.

The molecule `Cn1nc2c(c1-c1cccs1)C[C@@]1(C)[C@@H](CC[C@@H]3[C@@H]1CC[C@]1(C)[C@@H](O)CC[C@@H]31)C2` displayed an inhibition at 10 µM with LAPC4 [1] of 1%. Further, the result in assay [2] and in [3] was Active. The results for the viability at 20 µM in the assay on DU-145, in the assay with CWR22R and in the assay on LAPC4 [4] were 100%, 44% and 46%, respectively. In addition, in assay [5], the Activity came to 87%. Besides, the inhibition entry with LAPC4 [6] was “Active”.

Take `Cn1nc2c(c1-c1ccc(Br)cc1)C[C@@]1(C)[C@@H](CC[C@@H]3[C@@H]1CC[C@]1(C)C(=O)CC[C@@H]31)C2`: 10 µM produced 15% inhibition with LAPC4 [1]. The outcome in assay [2] and in assay [3] was Active. The viability at 20 µM in the assay on DU-145 stood at 96%; in the assay with CWR22R, 56%; in the assay with LAPC4 [4] it was 20%. In addition, the Activity in [5] stood at 49%. For the same molecule, the inhibition entry with LAPC4 [6] was “Active”.

For `Cc1c2c(nn1-c1ccccc1)C[C@@H]1CC[C@@H]3[C@H](CC[C@]4(C)[C@@H](O)CC[C@@H]34)[C@@]1(C)C2`, at 10 µM the inhibition in the assay on LAPC4 [1] was 1%. Besides, the outcome in assay [2] and in assay [3] was Active. Moreover, the results for the viability at 20 µM in the assay on DU-145, in the assay on CWR22R and in the assay with LAPC4 [4] were 97%, 24% and 65%, respectively. Besides, the inhibition result in the assay with LAPC4 [6] was “Active”.

For the molecule `C[C@]12Cc3c(nn(-c4ccccc4)c3-c3ccc(Cl)cc3)C[C@@H]1CC[C@@H]1[C@@H]2CC[C@]2(C)C(=O)CC[C@@H]12`, the inhibition at 10 µM in the assay with LAPC4 [1] stood at 91%. Moreover, the result with LAPC4 [7] and with LAPC4 [8] was inactive. In addition, the results for the viability at 20 µM with DU-145, in the assay on CWR22R and in the assay on LAPC4 [4] were 98%, 93% and 83%, respectively. The Activity entry in [5] is “>=100%”.

In the case of `C[C@]12Cc3c(nn(-c4ccccc4)c3-c3ccccc3)C[C@@H]1CC[C@@H]1[C@@H]2CC[C@]2(C)C(=O)CC[C@@H]12`, testing at 10 µM in the assay on LAPC4 [1] gave an inhibition of 19%. Further, the outcome in the assay with LAPC4 [7] and in the assay with LAPC4 [8] was inactive. For the same molecule, the viability at 20 µM in the assay on DU-145 stood at 19%; with CWR22R it was 19%; with LAPC4 [4], 61%. For the same molecule, the Activity result in assay [5] is listed as “>=100%”.

With `C[C@]12Cc3cn(-c4ccc(F)cc4)nc3C[C@@H]1CC[C@@H]1[C@@H]2CC[C@]2(C)[C@@H](O)CC[C@@H]12`, 10 µM produced 66% inhibition in the assay on LAPC4 [1]. For the same molecule, the outcome in the assay on LAPC4 [7] and in the assay with LAPC4 [8] was inactive. The figures for the viability at 20 µM in the assay with DU-145, in the assay with CWR22R and in the assay on LAPC4 [4] were not below 100%, not below 100% and 95%, respectively. Moreover, the Activity entry in assay [5] was “>=100%”.

Molecule `C[C@]12Cc3cn(-c4ccc([N+](=O)[O-])cc4)nc3C[C@@H]1CC[C@@H]1[C@@H]2CC[C@]2(C)[C@@H](O)CC[C@@H]12` returned an inhibition at 10 µM with LAPC4 [1] of 93%. Moreover, the result in the assay on LAPC4 [7] and with LAPC4 [8] was inactive. The viability at 20 µM with DU-145 is 99%; in the assay on CWR22R it was not below 100%; with LAPC4 [4] it was 96%. The Activity entry in assay [5] is reported as “>=100%”.

In the case of `Cc1ccc(-n2ncc3c2C[C@@H]2CC[C@@H]4[C@H](CC[C@]5(C)[C@@H](O)CC[C@@H]45)[C@@]2(C)C3)cc1`, 10 µM produced 0% inhibition in the assay on LAPC4 [1]. Moreover, the outcome in the assay with LAPC4 [7] and in the assay with LAPC4 [8] was Active. In addition, the viability at 20 µM turned out to be 96% in the assay with DU-145, 97% with CWR22R and 70% with LAPC4 [4]. For the same molecule, the Activity entry in assay [5] was “>=100%”.

For the molecule `Cc1c2c(nn1C)C[C@@H]1CC[C@@H]3[C@H](CC[C@]4(C)C(=O)CC[C@@H]34)[C@@]1(C)C2`, at 10 µM the inhibition with LAPC4 [1] was 67%. For the same molecule, the result in the assay with LAPC4 [7] and with LAPC4 [8] was inactive. The viability at 20 µM is not below 100% in the assay on DU-145, 103% in the assay on CWR22R and 53% in the assay with LAPC4 [4]. In addition, the Activity in [5] is 86%.

In the assay on LAPC4 [1], `C[C@]12Cc3cnn(-c4ccc(Cl)cc4)c3C[C@@H]1CC[C@@H]1[C@@H]2CC[C@]2(C)[C@@H](O)CC[C@@H]12` yielded an inhibition at 10 µM of 0%. The outcome in the assay with LAPC4 [7] and in the assay with LAPC4 [8] was Active. Moreover, the viability at 20 µM in the assay with DU-145 was determined as 91%; with CWR22R, 80%; in the assay on LAPC4 [4], 49%. For the same molecule, the Activity entry in assay [5] is “>=100%”.

The molecule `C[C@]12Cc3cnn(-c4ccccc4)c3C[C@@H]1CC[C@@H]1[C@@H]2CC[C@]2(C)[C@@H](O)CC[C@@H]12` returned an inhibition at 10 µM in the assay with LAPC4 [1] of 1%. For the same molecule, the outcome in the assay on LAPC4 [7] and with LAPC4 [8] was Active. In addition, the viability at 20 µM amounted to 97% with DU-145, 36% in the assay with CWR22R and 60% in the assay on LAPC4 [4]. In addition, the Activity result in assay [5] is reported as “>=100%”.

In the assay with LAPC4 [1], `Cn1nc2c(c1-c1ccco1)C[C@@]1(C)[C@@H](CC[C@@H]3[C@@H]1CC[C@]1(C)[C@@H](O)CC[C@@H]31)C2` came in with an inhibition at 10 µM of 2%. The outcome in assay [2] and in assay [3] was Active. In addition, the viability at 20 µM in the assay on DU-145 came to 100%; in the assay on CWR22R, 18%; with LAPC4 [4], 50%. The Activity in [5] was 78%. For the same molecule, the inhibition entry in the assay with LAPC4 [6] is “Active”.

As for `C[C@]12Cc3cn(-c4ccccc4)nc3C[C@@H]1CC[C@@H]1[C@@H]2CC[C@]2(C)[C@@H](O)CC[C@@H]12`, the inhibition at 10 µM with LAPC4 [1] was 59%. For the same molecule, the result with LAPC4 [7] and with LAPC4 [8] was inactive. Further, the viability at 20 µM is not below 100% in the assay on DU-145, not below 100% in the assay with CWR22R and 100% in the assay with LAPC4 [4]. Besides, in assay [5], the Activity entry is “>=100%”.

For the molecule `Cc1c2c(nn1-c1ccc(C#N)cc1)C[C@@H]1CC[C@@H]3[C@H](CC[C@]4(C)C(=O)CC[C@@H]34)[C@@]1(C)C2`, the result in assay [9] and in assay [10] was Active. In the assay on LAPC4 [1], the inhibition at 10 µM amounted to 29%. In addition, the figures for the viability at 20 µM with DU-145, with CWR22R and with LAPC4 [4] were not below 100%, 87% and 78%, respectively. In addition, in the assay with LAPC4 [6], the inhibition entry was “Active”.

For `C[C@]12Cc3cn(-c4ccc(Cl)cc4)nc3C[C@@H]1CC[C@@H]1[C@@H]2CC[C@]2(C)[C@@H](O)CC[C@@H]12`, testing at 10 µM in the assay with LAPC4 [1] gave an inhibition of 98%. The outcome in the assay on LAPC4 [7] and in the assay with LAPC4 [8] was inactive. Moreover, the viability at 20 µM was not below 100% in the assay with DU-145, not below 100% in the assay on CWR22R and 82% with LAPC4 [4]. In addition, in assay [5], the Activity entry is given as “>=100%”.

In the case of `C[C@]12Cc3c(nn(-c4ccccc4)c3-c3ccc(O)cc3)C[C@@H]1CC[C@@H]1[C@@H]2CC[C@]2(C)C(=O)CC[C@@H]12`, in the assay with LAPC4 [1], 10 µM produced 39% inhibition. The result in the assay with LAPC4 [7] and with LAPC4 [8] was inactive. Further, the viability at 20 µM in the assay on DU-145 was determined as 94%; in the assay with CWR22R, 57%; in the assay on LAPC4 [4], 67%. Further, the Activity result in assay [5] is reported as “>=100%”.

A word on the inhibition: it is the share of the control response that was lost under treatment.
